Read-outs that look alike come from different tables or passages of the source.
What was measured:
[1] = cited from earlier work
[2] = Transnasal administration of topiramate to the sphenopalatine ganglion in human patients (Example 1); assay type: in vivo
Source text: The devices and methods described above were applied to the treatment of human patients for headache pain, when the inventor observed a dramatic effect with regard to treating obesity and promoting weight-loss. The results of this testing are surprising and unexpected in view of efficacy of the very low dosages administered as compared to published treatment regimens using topiramate without any co-delivered medicament for the treatment of obesity. […] The method of treatment was as follows: Topiramate was dissolved in sterile water to a concentration of 5 mg/mL. Then, 0.3 mL of this solution (1.5 mg of topiramate) per nostril was administered transnasally to the sphenopalatine ganglion using a Tx360® nasal applicator (from Tian Medical of Lombard, Ill.) in the manner described above with reference to the devices shown in FIGS. 6-11B and the relative distal-end anatomic positioning described with reference to FIGS. 4-5. This dosage was administered once per week for four weeks. Each patient lost between 5% and 10% of his/her body weight over the four-week period. […] It is expected that dosage may be effective for headache pain and for promoting weight loss as treatment for obesity at a frequency from once or twice per day to once per month when administered at […] delivered as about 0.2-0.3 mL per nostril toward the SPG. Although this sample is very small, it compares highly favorably to published studies using topiramate for weight loss, and the effective dosage was surprising far lower than the effective dosages reported in the literature. As a first example, in Obesity Review 2011 May; 12(5):e338-47. doi: 10.1111/j.1467-789X.2010.00846.x. Epub 2011 Mar. 28. Efficacy and safety of topiramate on weight loss: a meta-analysis of randomized controlled trials, ten clinical studies (3320 individuals) were evaluated, each of which was a randomized controlled study with at least 16 weeks of duration that reported the effect of topiramate on weight loss and adverse events using topiramate at 96-200 mg/day. […] Although the etiology is not apparent, a highly reasonable hypothesis is that the side effects and lack thereof, respectively, may be related to the significant dosage difference and/or administration mode (96-200 mg/day perorally versus 3 mg/week transnasally).

[3] = 96-200 mg/day perorally, at least 16 weeks, ten clinical studies (3320 individuals); cited from earlier work
[4] = cited from earlier work; for mean percent weight loss from baseline to week 24: placebo −2.6%
[5] = every patient, after the first dosage, 3 mg transnasally to the SPG

CC1(C)O[C@@H]2[C@@H](CO[C@@]3(COS(N)(=O)=O)OC(C)(C)O[C@@H]23)O1 [topiramate, 2,3:4,5-bis-O-(1-methylethylidene)-β-D-fructopyranose sulfamate]
solubility in water [1]: up to 9.8 mg/mL
side effects (paresthesia, taste impairment and psychomotor disturbances) reported by patients ([2]; 3 mg/week transnasally to the SPG): none of which was reported by patients in the presently-reported example
regular headache pain (patient-reported) ([2]; all patients, 3 mg/week transnasally to the SPG): reduced in frequency and severity
craving for food, nicotine, and alcohol (patient-reported) [2, 5]: immediate reduction of craving for food, nicotine, and alcohol
satiety (needing less food intake to feel full; patient-reported) [2, 5]: improved satiety
patients with effective weight loss ([2]; human patients, 1.5 mg per nostril (3 mg) transnasally to the SPG once per week for four weeks): 100%
frequently observed side effects [3]: paresthesia, taste impairment and psychomotor disturbances
mean percent weight loss from baseline to week 24 ([4]; 64 mg/day topiramate group): −5.0%
mean percent weight loss from baseline to week 24 ([4]; 96 mg/day topiramate group): −4.8%
mean percent weight loss from baseline to week 24 ([4]; 192 mg/day topiramate group): −6.3%
mean percent weight loss from baseline to week 24 ([4]; 384 mg/day topiramate group): −6.3%
most frequent adverse events ([4]; 64-384 mg daily, 24 weeks): paresthesia, somnolence, and difficulty with memory, concentration, and attention
percentages of patients who lost at least 5% or 10% of body weight compared with placebo ([4]; 64-384 mg daily, 24 weeks): Greater percentages of topiramate-treated patients lost at least 5% or 10% of body weight compared with placebo

— US10278948B1, “Method for transnasal delivery of anticonvulsant and therapeutic treatments” (priority 2015, dated 2019)
